Measurements taken from PMC6796659, “Topoisomerase IB poisons induce histone H2A phosphorylation as a response to DNA damage in Leishmania infantum” (International Journal for Parasitology: Drugs and Drug …, 2019).

Experiments:
[1] = system: iRFP L. infantum promastigotes; assay: Antileishmanial activity on free-living iRFP L. infantum promastigotes (infrared fluorescence viability); format: cell-based; details: Leishmania infantum, 72 h, 26 °C
Experimental: Histone phosphorylation assays were performed in promastigotes of L. infantum BCN 150 strain, whereas the antiparasitic activity of the compounds was assessed on the transgenic strain that constitutively expresses the irfp gene encoding the infrared iRFP protein (iRFP L. infantum strain) ([Calvo-Álvarez et al., 2015]), which is derived from L. infantum BCN 150. Both strains were grown at 26 °C in M-199 medium (Gibco) supplemented with 25 mM HEPES pH 7.2, 0.1 mM adenine, 0.0005% (w/v) hemin, 2 μg/mL biopterin, 0.0001% (w/v) biotin, 10% (v/v) heat-inactivated fetal bovine serum (FBS) and an antibiotic cocktail comprising 50 U/mL penicillin and 50 μg/mL streptomycin.
(§1) The antileishmanial activity of the compounds was tested both in promastigotes and in amastigotes infecting mouse splenocytes. For this purpose, 384-well optical bottom black plates (Thermo Scientific) were seeded either with free-living iRFP L. infantum promastigotes or with splenic explants infected with iRFP L. infantum amastigotes, which were incubated at 26 °C or 37 °C, respectively. The viability of both iRFP L. infantum stages was measured by recording the fluorescence emitted by viable cells at 708 nm in an Odyssey (Li-Cor) infrared imaging system after a 72-h period of incubation with different concentrations of the compounds. Dose-response curves were obtained by plotting the infrared fluorescence emission of viable parasites vs. different concentrations of testing compounds and were fitted by nonlinear analysis using the Sigma-Plot 10.0 statistical package. The reduction of infrared emission with respect to the negative control was used to determine the 50% effective concentration to kill the parasites (EC50). Both controls and treated groups were tested with DMSO (drug vehicle) concentrations below 0.1%. All compounds and controls were assayed in triplicate.

[2] = system: iRFP L. infantum amastigotes infecting mouse splenocytes; assay: Antileishmanial activity on iRFP L. infantum amastigotes in ex vivo murine splenic explants; format: cell-based, Leishmania infantum
Experimental: Five-week BALB/c female mice infected intraperitoneally with 1.5 × 10^9 metacyclic iRFP L. infantum promastigotes were sacrificed to eviscerate their spleens, which were processed to obtain a suspension of primary splenocytes. Briefly, freshly dissected spleens were washed with cold phosphate-buffered saline (PBS), cut in small pieces and incubated for 20 min with 5 mL of 2 mg/mL collagenase D (Sigma) prepared in buffer (10 mM HEPES, pH 7.4, 150 mM NaCl, 5 mM KCl, 1 mM MgCl2 and 1.8 mM CaCl2). Then, the cell suspension was passed through a 100 μm cell strainer, harvested by centrifugation (500×g for 7 min at 4 °C), washed twice with PBS, and resuspended in RPMI medium (Gibco) supplemented with 10 mM HEPES, 1 mM sodium pyruvate, 1xRPMI 1640 vitamin mix, 10% (v/v) FBS, 50 U/mL penicillin and 50 μg/mL streptomycin. The cell suspension was cultured in 384-well optical bottom black plates (Thermo Scientific) at 37 °C under 5% CO2 atmosphere.
as §1

[3] = Cytotoxicity on uninfected mouse splenocytes (Alamar Blue); format: cell-based; details: BALB/c, freshly isolated uninfected mouse splenocytes, non-infected mouse splenocytes, read-out: CC50 (μM) Murine Splenocytes
Experimental: Finally, the cytotoxicity of the compounds was assessed on freshly-isolated mouse splenocytes, which were obtained from uninfected BALB/c mice according to the protocol previously described. Viability of uninfected splenocytes was used to determine the cytotoxic concentration 50 (CC50) by means of the Alamar Blue staining method, according to manufacturer's recommendations (Invitrogen). Selectivity index (SI) for each compound was calculated as the ratio between the CC50 value obtained for splenic cells and the EC50 value for amastigotes.

[4] = system: Leishmania topoisomerase IB (LTopIB); assay: Relaxation of supercoiled pSK DNA by recombinant LTopIB; format: biochemical; details: Table 1
Experimental: Expression and purification of LTopIB and hTopIB were carried out according to a previously standardized protocol ([Villa et al., 2003]). The effect of indenoisoquinolines (compounds 1 to 20) on recombinant LTopIB and hTopIB was determined by measuring the relaxation of negatively supercoiled pBluescript-SK DNA plasmid (pSK). Briefly, in a total volume of 20 μL, 100 U of recombinant TopIB were incubated with 0.5 μg of pSK DNA in 10 mM Tris-HCl buffer (pH 7.5), 5 mM MgCl2, 5 mM dithiothreitol (DTT), 0.1 mM EDTA, […] bovine serum albumin, and 150 mM KCl. Different concentrations of indenoisoquinolines were also added. Following a 4-min incubation period at 25 °C, reactions were stopped with 1% (w/v) SDS, and incubated for one extra hour at 37 °C in the presence of 1 mg/mL proteinase K. Subsequently, samples were extracted with 1 vol phenol-chloroform mixture and were loaded on a 1% agarose gel containing 0.1 μg/mL ethidium bromide. The gel was run for 16 h at 4 V/cm, and the images were acquired using a G-Box system (Syngene, United Kingdom).

Which EC50 [1] does the source give for `NCCCn1c2c(c3ccccc3c1=O)C(=O)c1ccccc1-2` [Compound 2] here?
Its EC50 is 0.34 ± 0.03 µM.

What about the “SI (Selectivity Index)” value ([2]; CC50 (splenocytes)/EC50 (amastigotes)) of the same compound?
The value was 4.9.

What about the EC50 ([2]; Leishmania infantum, Splenocyte, splenic-infecting iRFP L. infantum amastigotes, 72 h, 37 °C, read-out: EC50 (μM) L. infantum amastigotes) of the same compound?
Its EC50 is 0.12 ± 0.05 µM.

What about the CC50 [3] of the same compound?
Its CC50 is 0.59 ± 0.28 µM.

What about the LTopIB inhibition [4] of the same compound?
Its LTopIB inhibition is “+++ (inhibition at 1 μM)”.
